Columns and labels:
Assay type in all cases: in vivo
Abutilon theophrasti [1] = test: Pre-emergence herbicidal activity, glasshouse pot test; settings: pre-emergence spray, rate 1000 g/ha, evaluated after 13 days, scale 0-5
How it was run: (§1)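 Pots of seeded soil were sprayed one day after sowing (pre-emergence) with compound formulated in acetone/water 50:50 with 0.5% Tween 20. Plants were grown in a glasshouse at 24/16 °C day/night, 14 h light, 65% humidity. Damage was scored after 13 days on a 0–5 scale (5 = total damage).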

Alopecurus myosuroides [2] = test: as above; settings: pre-emergence spray, rate 1000 g/ha, evaluated after 13 days, scale 0-5
How it was run: as §1

Amaranthus retroflexus [3] = test: as above; settings: pre-emergence spray, rate 1000 g/ha, evaluated after 13 days, scale 0-5
How it was run: as §1

Echinochloa crus-galli [4] = test: as above; settings: pre-emergence spray, rate 1000 g/ha, evaluated after 13 days, scale 0-5
How it was run: as §1

Setaria faberi [5] = test: as above; settings: pre-emergence spray, rate 1000 g/ha, evaluated after 13 days, scale 0-5
How it was run: as §1

zea mays [6] = test: as above; settings: pre-emergence spray, rate 1000 g/ha, evaluated after 13 days, scale 0-5
How it was run: as §1

Abutilon theophrasti [7] = test: Post-emergence herbicidal activity, glasshouse pot test; design: key: 0 = no damage to plant, 5 = total damage to plant; settings: Application post-emergence, rate 1000 g/ha, evaluated after 13 days
How it was run: (§2)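 After 8 days of glasshouse growth at 24/16 °C day/night, potted plants receive a foliar spray of the formulated compound (0.5% Tween 20 in acetone/water). They are then watered twice daily under unchanged conditions, and phytotoxicity is scored 0–5 after 13 days.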

Alopecurus myosuroides [8] = test: as above; design: key: 0 = no damage to plant, 5 = total damage to plant; settings: Application post-emergence, rate 1000 g/ha, evaluated after 13 days
How it was run: as §2

Amaranthus retroflexus [9] = test: as above; design: key: 0 = no damage to plant, 5 = total damage to plant; settings: Application post-emergence, rate 1000 g/ha, evaluated after 13 days
How it was run: as §2

Echinochloa crus-galli [10] = test: as above; design: key: 0 = no damage to plant, 5 = total damage to plant; settings: Application post-emergence, rate 1000 g/ha, evaluated after 13 days
How it was run: as §2

Setaria faberi [11] = test: as above; design: key: 0 = no damage to plant, 5 = total damage to plant; settings: Application post-emergence, rate 1000 g/ha, evaluated after 13 days
How it was run: as §2

zea mays [12] = test: as above; design: key: 0 = no damage to plant, 5 = total damage to plant; settings: Application post-emergence, rate 1000 g/ha, evaluated after 13 days
How it was run: as §2

Row | SMILES | ABUTH damage score, application pre-emergence (Abutilon theophrasti [1]) | ALOMY damage score, application pre-emergence (Alopecurus myosuroides [2]) | AMARE damage score, application pre-emergence (Amaranthus retroflexus [3]) | ECHCG damage score, application pre-emergence (Echinochloa crus-galli [4]) | SETFA damage score, application pre-emergence (Setaria faberi [5]) | ZEAMX damage score, application pre-emergence (zea mays [6]) | ABUTH herbicidal damage score (Abutilon theophrasti [7]) | ALOMY herbicidal damage score (Alopecurus myosuroides [8]) | AMARE herbicidal damage score (Amaranthus retroflexus [9]) | ECHCG herbicidal damage score (Echinochloa crus-galli [10]) | SETFA herbicidal damage score (Setaria faberi [11]) | ZEAMX herbicidal damage score (zea mays [12])
1 | CC1=C(Cl)C(=O)N(c2ccc([S+](C)[O-])cn2)C1O (stereo not drawn) [AF53] | 0 | 2 | 1 | 1 | 0 | 1 | 3 | 3 | 1 | 3 | 3 | 0
2 | COC1=C(C)C(O)N(c2cc(C(F)(F)F)c(Cl)nn2)C1=O (stereo not drawn) [BI9] | 1 | 4 | 5 | 4 | 2 | 2 | 5 | 5 | 5 | 5 | 5 | 4
3 | CCO/C=C\c1cnc(N2C(=O)C(Cl)=C(C)C2O)cc1C(F)(F)F (stereo not drawn) [AF1] | 1 | 1 | 4 | 2 | 2 | 1 | 5 | 5 | 5 | 5 | 5 | 2
4 | CCCC1=C(Cl)C(=O)N(c2cc(C(C)(C)C#N)ncn2)C1O (stereo not drawn) [CF22] | 5 | 2 | 5 | 5 | 4 | 2 | 5 | 5 | 5 | 5 | 5 | 3
5 | CCOC(=O)c1cnc(N2C(=O)C(OC)=C(C)C2O)cc1Cl (stereo not drawn) [AI19] | 0 | 1 | 2 | 2 | 1 | 0 | 4 | 1 | 5 | 3 | 5 | 1
6 | COC1=C(OC)C(O)N(c2cc(F)ccn2)C1=O (stereo not drawn) [AK3] | 5 | 2 | 5 | 4 | 3 | 2 | 5 | 4 | 4 | 5 | 5 | 4
7 | COC1=C(C)C(O)N(c2cc(C(F)(F)F)c(OC)cn2)C1=O (stereo not drawn) [AI15] | 2 | 4 | 5 | 4 | 5 | 3 | 5 | 5 | 5 | 5 | 5 | 4
8 | COC1=C(C)C(O)N(c2cc(C(F)(F)F)c(C(=O)CC#N)cn2)C1=O (stereo not drawn) [AI38] | 1 | 3 | 5 | 4 | 3 | 2 | 4 | 4 | 5 | 5 | 4 | 2
9 | CC1=C(Cl)C(=O)N(c2cc(C(C)C)c(Cl)nn2)C1O (stereo not drawn) [BF10] | 4 | 4 | 3 | 5 | 5 | 2 | 5 | 5 | 5 | 5 | 5 | 3
10 | COC1=C(OC)C(O)N(c2cc(C(F)(F)F)c(C(F)(F)F)cn2)C1=O (stereo not drawn) [AK4] | 1 | 1 | 1 | 0 | 0 | 1 | 5 | 3 | 5 | 5 | 3 | 2
11 | COC1=C(C)C(O)N(c2cc3c(nn2)CCCC3)C1=O (stereo not drawn) [BI3] | 0 | 1 | 2 | 4 | 0 | 0 | 2 | 3 | 3 | 3 | 5 | 1
12 | COC1=C(C)C(O)N(c2cc(C(F)(F)F)c(C(=O)NC(C)(C)C)cn2)C1=O (stereo not drawn) [AI6] | 5 | 4 | 5 | 5 | 5 | 4 | 5 | 5 | 5 | 5 | 5 | 5
13 | COC1=C(C)C(O)N(c2cc(F)ccn2)C1=O (stereo not drawn) [AI23] | 1 | 3 | 5 | 5 | 4 | 1 | 5 | 5 | 5 | 5 | 5 | 3
14 | CCOC1=C(C)C(O)N(c2cc(C(F)(F)F)ccn2)C1=O (stereo not drawn) [AI5, 4-ethoxy-2-hydroxy-3-methyl-1-[4-(trifluoromethyl)-2-pyridyl]-2H-pyrrol-5-one] | 4 | 4 | 5 | 4 | 5 | 3 | 5 | 4 | 5 | 5 | 4 | 3
15 | CCC1=C(Cl)C(=O)N(c2cc(C(C)(C)C#N)ncn2)C1O (stereo not drawn) [CF10] | 5 | 2 | 5 | 4 | 4 | 4 | 5 | 5 | 5 | 5 | 5 | 5
16 | CC1=C(Cl)C(=O)N(c2nccc(C(C)(C)C)n2)C1O (stereo not drawn) [DF2] | 5 | 4 | 5 | 5 | 5 | 2 | 5 | 5 | 5 | 5 | 5 | 1
